The structures appear in SMILES notation.

In the first assay the target is α4β2 nAChR Subtype (Rattus norvegicus, UniProt P09483+P12390). Kind of assay: Radioligand binding at α4β2 nAChR subtype, inhibition of [3H]nicotine binding, rat cerebral cortex membranes. The note with it: Rat α4β2 Ki, [3H]nicotine 5 nM. The method, then: The [^3H]nicotine (Specific Activity=81.5 Ci/mmol) was obtained from NEN Research Products. The binding of [^3H]nicotine was measured using a 3 h incubation at 4° C. […] Each filter was washed with ice-cold buffer (3×1 mL).
α4β2 nAChR Subtype, sequence (P09483 31-630): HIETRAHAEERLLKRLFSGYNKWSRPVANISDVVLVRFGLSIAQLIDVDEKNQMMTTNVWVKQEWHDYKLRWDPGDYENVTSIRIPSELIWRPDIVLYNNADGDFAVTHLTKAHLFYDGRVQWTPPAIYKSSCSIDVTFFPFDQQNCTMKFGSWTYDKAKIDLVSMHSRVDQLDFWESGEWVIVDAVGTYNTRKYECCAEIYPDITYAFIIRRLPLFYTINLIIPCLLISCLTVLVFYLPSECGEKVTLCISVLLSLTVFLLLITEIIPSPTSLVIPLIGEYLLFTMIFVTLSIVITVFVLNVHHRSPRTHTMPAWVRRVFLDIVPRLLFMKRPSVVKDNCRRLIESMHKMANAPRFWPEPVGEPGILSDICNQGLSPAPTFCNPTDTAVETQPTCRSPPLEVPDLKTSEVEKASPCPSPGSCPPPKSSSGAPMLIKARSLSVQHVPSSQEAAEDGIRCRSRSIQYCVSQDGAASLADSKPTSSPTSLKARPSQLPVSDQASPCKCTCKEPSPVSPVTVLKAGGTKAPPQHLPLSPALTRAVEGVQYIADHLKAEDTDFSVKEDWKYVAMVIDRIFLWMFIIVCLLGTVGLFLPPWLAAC
α4β2 nAChR Subtype, sequence (P12390 25-500): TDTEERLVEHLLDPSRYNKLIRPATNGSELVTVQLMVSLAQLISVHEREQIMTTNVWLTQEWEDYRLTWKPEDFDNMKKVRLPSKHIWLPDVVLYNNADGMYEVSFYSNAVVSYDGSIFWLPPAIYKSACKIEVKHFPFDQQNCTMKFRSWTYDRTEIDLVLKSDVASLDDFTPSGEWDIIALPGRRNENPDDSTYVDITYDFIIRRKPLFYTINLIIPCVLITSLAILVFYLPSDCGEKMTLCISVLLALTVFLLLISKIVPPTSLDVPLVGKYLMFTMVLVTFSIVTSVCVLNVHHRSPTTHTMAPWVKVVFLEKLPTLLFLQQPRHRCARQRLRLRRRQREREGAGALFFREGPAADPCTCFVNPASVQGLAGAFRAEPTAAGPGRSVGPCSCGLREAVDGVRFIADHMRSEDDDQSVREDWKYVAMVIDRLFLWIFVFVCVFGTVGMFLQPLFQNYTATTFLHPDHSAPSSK
Each concentration was replicated in triplicate.
On to `O=C(c1ccco1)[C@@H]1C[C@H]2CNC[C@H]2C1` [trans-2-furanyl(3-azabicyclo[3.3.0]oct-7-yl)methanone], for which the Ki came to 463 nM.

As for `O=C(OCC1CC1)C1C[C@H]2CNC[C@H]2C1` (mixture of isomers) [cyclopropylmethyl 3-azabicyclo[3.3.0]octane-7-carboxylate], the Ki was found to be 62.1 nM.

`CN(C)C(=O)C1CC2CNCC(C2)C1` (stereo not drawn) [N,N-dimethyl-3-azabicyclo[3.3.1]nonane-7-carboxamide] came in with a Ki of 78 nM.

`CN(C)C(=O)[C@@H]1C[C@H]2CNC[C@H]2C1` [trans-N,N-dimethyl-3-azabicyclo[3.3.0]octane-7-carboxamide] gave a Ki of 28.7 nM.

Compound `C/C=C/C(=O)C1C[C@H]2CNC[C@H]2C1` (stereo partly drawn) [trans-1-(3-azabicyclo[3.3.0]oct-7-yl)-2-buten-1-one] registered a Ki of 15.4 nM.

Compound `CN(C)C(=O)C1=C[C@@H]2CNC[C@@H]2C1` [N,N-dimethyl-3-azabicyclo[3.3.0]oct-6-ene-7-carboxamide] showed a Ki of 60 nM.

The assay is the same for the next values; noted with them: [3H]nicotine 5 nM, read-out: Rat α4β2 Ki.
Regarding `C=CCNC(=O)C1C[C@H]2CNC[C@H]2C1` (mixture of isomers) [N-allyl-3-azabicyclo[3.3.0]octane-7-carboxamide], the Ki turned out to be 419 nM.

For `CCC(C)C(=O)C1C[C@H]2CNC[C@H]2C1` (mixture of isomers) [1-(3-azabicyclo[3.3.0]oct-7-yl)-2-methyl-1-butanone], the Ki was found to be 11.1 nM.

Take `N#Cc1ccoc1C(=O)[C@H]1C[C@H]2CNC[C@H]2C1` [cis-3-cyanofuran-2-yl(3-azabicyclo[3.3.0]oct-7-yl)methanone]: the Ki is 14 nM.

Take `CCOC(=O)C1C[C@H]2CNC[C@H]2C1` (mixture of isomers) [ethyl 3-azabicyclo[3.3.0]octane-7-carboxylate]: the Ki came out at 45.8 nM.

On to `O=C(C1C[C@H]2CNC[C@H]2C1)N1CCC[C@@H]1CO` (mixture of isomers) [(R)-(2-(hydroxymethyl)-1-pyrrolidinyl)(3-azabicyclo[3.3.0]oct-7-yl)methanone], for which the Ki is 387 nM.

As to `O=C(c1ccc(F)cc1)C1C[C@H]2CNC[C@H]2C1` (mixture of isomers) [4-fluorophenyl(3-azabicyclo[3.3.0]oct-7-yl)methanone], the Ki turned out to be 321 nM.

With `O=C(c1ccncc1)C1C[C@H]2CNC[C@H]2C1` (mixture of isomers) [pyridin-4-yl(3-azabicyclo[3.3.0]oct-7-yl)methanone], the Ki came to 43 nM.

For the compound `O=C(OCCF)C1C[C@H]2CNC[C@H]2C1` (mixture of isomers) [2-fluoroethyl 3-azabicyclo[3.3.0]octane-7-carboxylate], the Ki was 55.1 nM.

For `CC(C)(C)C(=O)C1C[C@H]2CNC[C@H]2C1` (mixture of isomers) [1-(3-azabicyclo[3.3.0]oct-7-yl)-2,2-dimethyl-1-propanone], the Ki stood at 21.4 nM.

`CCCNC(=O)C1CC2CNCC(C2)C1` (stereo not drawn) [N-propyl-3-azabicyclo[3.3.1]nonane-7-carboxamide]: the inhibition constant Ki amounted to 21.4 nM.

Regarding `O=C(OCC1CCOC1)C1C[C@H]2CNC[C@H]2C1` (mixture of isomers) [(tetrahydrofuran-3-yl)methyl 3-azabicyclo[3.3.0]octane-7-carboxylate], the Ki stood at 111 nM.

For the compound `O=C(NC1CCC1)C1CC2CNCC(C2)C1` (stereo not drawn) [N-(cyclobutyl)-3-azabicyclo[3.3.1]nonane-7-carboxamide], the Ki was found to be 135 nM.

As to `C=CCNC(=O)C1CC2CNCC(C2)C1` (stereo not drawn) [N-allyl-3-azabicyclo[3.3.1]nonane-7-carboxamide], the Ki was 30.6 nM.

The next assay deals with Human α4β2 (Homo sapiens, UniProt P17787+P43681). The assay can be described thus: Binding at human α4β2 (Ki); method not described.
Human α4β2, sequence (P43681 29-627 limits assumed): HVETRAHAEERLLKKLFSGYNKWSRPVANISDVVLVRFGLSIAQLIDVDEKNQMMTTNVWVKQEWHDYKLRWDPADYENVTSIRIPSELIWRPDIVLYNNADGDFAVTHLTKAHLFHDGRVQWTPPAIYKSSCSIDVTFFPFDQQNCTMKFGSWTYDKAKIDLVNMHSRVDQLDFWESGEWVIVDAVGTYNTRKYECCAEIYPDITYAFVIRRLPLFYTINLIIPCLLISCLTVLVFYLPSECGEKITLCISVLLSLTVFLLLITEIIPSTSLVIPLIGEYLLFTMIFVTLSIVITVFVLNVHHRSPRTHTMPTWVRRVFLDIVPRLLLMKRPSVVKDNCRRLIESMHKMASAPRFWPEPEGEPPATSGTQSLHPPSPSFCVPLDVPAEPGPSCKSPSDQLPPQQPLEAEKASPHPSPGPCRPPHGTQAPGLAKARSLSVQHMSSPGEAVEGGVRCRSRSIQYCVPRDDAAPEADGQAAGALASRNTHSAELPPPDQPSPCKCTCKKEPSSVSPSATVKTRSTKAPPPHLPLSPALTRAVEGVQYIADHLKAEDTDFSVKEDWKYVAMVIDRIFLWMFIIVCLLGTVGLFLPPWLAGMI
Human α4β2, sequence (P17787 26-502): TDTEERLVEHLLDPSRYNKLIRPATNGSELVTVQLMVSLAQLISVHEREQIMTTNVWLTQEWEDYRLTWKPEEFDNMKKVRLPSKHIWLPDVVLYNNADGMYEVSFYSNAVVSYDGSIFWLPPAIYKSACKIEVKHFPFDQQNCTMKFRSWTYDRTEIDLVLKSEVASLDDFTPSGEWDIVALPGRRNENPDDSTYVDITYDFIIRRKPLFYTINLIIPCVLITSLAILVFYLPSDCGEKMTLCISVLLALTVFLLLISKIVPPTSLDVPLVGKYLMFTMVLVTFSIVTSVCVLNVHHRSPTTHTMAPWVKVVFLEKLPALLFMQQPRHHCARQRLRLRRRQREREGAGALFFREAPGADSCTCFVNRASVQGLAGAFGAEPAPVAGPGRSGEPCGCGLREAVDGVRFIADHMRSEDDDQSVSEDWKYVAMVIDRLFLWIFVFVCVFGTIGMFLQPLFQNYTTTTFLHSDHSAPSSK
Details: not given
`C=CCNC(=O)C1C[C@H]2CNC[C@H]2C1` (mixture of isomers) [N-allyl-3-azabicyclo[3.3.0]octane-7-carboxamide]: the Ki was 176 nM.

Take `CCC(C)C(=O)C1C[C@H]2CNC[C@H]2C1` (mixture of isomers) [1-(3-azabicyclo[3.3.0]oct-7-yl)-2-methyl-1-butanone]: the affinity corresponds to a Ki of 3.3 nM.

Turning to `N#Cc1ccoc1C(=O)[C@H]1C[C@H]2CNC[C@H]2C1` [cis-3-cyanofuran-2-yl(3-azabicyclo[3.3.0]oct-7-yl)methanone], affinity was put at a Ki of 25.7 nM.

On to `CCOC(=O)C1C[C@H]2CNC[C@H]2C1` (mixture of isomers) [ethyl 3-azabicyclo[3.3.0]octane-7-carboxylate], for which the inhibition constant Ki was 17.5 nM.

Regarding `O=C(c1ccco1)[C@@H]1C[C@H]2CNC[C@H]2C1` [trans-2-furanyl(3-azabicyclo[3.3.0]oct-7-yl)methanone], affinity was put at a Ki of 226 nM.

`O=C(C1C[C@H]2CNC[C@H]2C1)N1CCC[C@@H]1CO` (mixture of isomers) [(R)-(2-(hydroxymethyl)-1-pyrrolidinyl)(3-azabicyclo[3.3.0]oct-7-yl)methanone] displayed a Ki of 255 nM.

`O=C(c1ccc(F)cc1)C1C[C@H]2CNC[C@H]2C1` (mixture of isomers) [4-fluorophenyl(3-azabicyclo[3.3.0]oct-7-yl)methanone] registered a Ki of 134 nM.

For `O=C(OCC1CC1)C1C[C@H]2CNC[C@H]2C1` (mixture of isomers) [cyclopropylmethyl 3-azabicyclo[3.3.0]octane-7-carboxylate], the Ki is 40.3 nM.

For `O=C(c1ccncc1)C1C[C@H]2CNC[C@H]2C1` (mixture of isomers) [pyridin-4-yl(3-azabicyclo[3.3.0]oct-7-yl)methanone], the Ki turned out to be 36.4 nM.

`O=C(OCCF)C1C[C@H]2CNC[C@H]2C1` (mixture of isomers) [2-fluoroethyl 3-azabicyclo[3.3.0]octane-7-carboxylate] gave a Ki of 102 nM.

`CN(C)C(=O)C1CC2CNCC(C2)C1` (stereo not drawn) [N,N-dimethyl-3-azabicyclo[3.3.1]nonane-7-carboxamide]: the Ki is 54 nM.

In turn, `CN(C)C(=O)[C@@H]1C[C@H]2CNC[C@H]2C1` [trans-N,N-dimethyl-3-azabicyclo[3.3.0]octane-7-carboxamide] had a Ki of 114 nM.

Consider `CC(C)(C)C(=O)C1C[C@H]2CNC[C@H]2C1` (mixture of isomers) [1-(3-azabicyclo[3.3.0]oct-7-yl)-2,2-dimethyl-1-propanone], for which the Ki stood at 4.2 nM.

On to `CCCNC(=O)C1CC2CNCC(C2)C1` (stereo not drawn) [N-propyl-3-azabicyclo[3.3.1]nonane-7-carboxamide], for which the Ki amounted to 10.4 nM.

Take `O=C(OCC1CCOC1)C1C[C@H]2CNC[C@H]2C1` (mixture of isomers) [(tetrahydrofuran-3-yl)methyl 3-azabicyclo[3.3.0]octane-7-carboxylate]: the affinity, expressed as Ki, was 47.7 nM.

For the compound `O=C(NC1CCC1)C1CC2CNCC(C2)C1` (stereo not drawn) [N-(cyclobutyl)-3-azabicyclo[3.3.1]nonane-7-carboxamide], the affinity corresponds to a Ki of 308 nM.

The compound `C=CCNC(=O)C1CC2CNCC(C2)C1` (stereo not drawn) [N-allyl-3-azabicyclo[3.3.1]nonane-7-carboxamide] had a Ki of 4.3 nM.

The compound `C/C=C/C(=O)C1C[C@H]2CNC[C@H]2C1` (stereo partly drawn) [trans-1-(3-azabicyclo[3.3.0]oct-7-yl)-2-buten-1-one] had an inhibition constant (Ki) of 29.7 nM.

Compound `CN(C)C(=O)C1=C[C@@H]2CNC[C@@H]2C1` [N,N-dimethyl-3-azabicyclo[3.3.0]oct-6-ene-7-carboxamide] gave a Ki of 164 nM.

The target of a further assay is α7 nAChR Subtype (Rattus norvegicus, UniProt Q05941). The assay can be described thus: Radioligand binding at α7 nAChR subtype, inhibition of [3H]MLA binding, rat hippocampus membranes (HTS at 5 μM, then Ki).
α7 nAChR Subtype, sequence (Q05941 23-502): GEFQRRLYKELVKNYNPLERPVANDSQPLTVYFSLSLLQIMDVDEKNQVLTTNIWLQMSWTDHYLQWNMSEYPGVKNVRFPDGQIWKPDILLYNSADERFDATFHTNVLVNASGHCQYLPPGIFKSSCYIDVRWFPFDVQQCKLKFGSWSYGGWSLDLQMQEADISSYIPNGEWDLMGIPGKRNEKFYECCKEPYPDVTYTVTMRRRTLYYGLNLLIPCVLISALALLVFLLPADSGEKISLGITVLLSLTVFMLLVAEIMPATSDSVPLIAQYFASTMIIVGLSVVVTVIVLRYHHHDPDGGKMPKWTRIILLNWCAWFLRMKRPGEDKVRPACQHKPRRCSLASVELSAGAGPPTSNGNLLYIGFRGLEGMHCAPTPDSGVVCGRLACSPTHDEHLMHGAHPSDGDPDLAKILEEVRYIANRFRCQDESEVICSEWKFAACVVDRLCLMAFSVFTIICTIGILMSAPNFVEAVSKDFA
Details: not given
In the case of `C=CCNC(=O)C1C[C@H]2CNC[C@H]2C1` (mixture of isomers) [N-allyl-3-azabicyclo[3.3.0]octane-7-carboxamide], the Ki is at least 10000 nM.

Regarding `O=C(OCC1CC1)C1C[C@H]2CNC[C@H]2C1` (mixture of isomers) [cyclopropylmethyl 3-azabicyclo[3.3.0]octane-7-carboxylate], the Ki was above 10000 nM.

`CN(C)C(=O)C1CC2CNCC(C2)C1` (stereo not drawn) [N,N-dimethyl-3-azabicyclo[3.3.1]nonane-7-carboxamide] returned a Ki above 10000 nM.

In the case of `C/C=C/C(=O)C1C[C@H]2CNC[C@H]2C1` (stereo partly drawn) [trans-1-(3-azabicyclo[3.3.0]oct-7-yl)-2-buten-1-one], the Ki is above 10000 nM.

Consider `CN(C)C(=O)C1=C[C@@H]2CNC[C@@H]2C1` [N,N-dimethyl-3-azabicyclo[3.3.0]oct-6-ene-7-carboxamide], for which the Ki was above 10000 nM.

Staying with this assay, now noted: read-out: α7 HTS outcome (α7 Ki).
In the case of `CCC(C)C(=O)C1C[C@H]2CNC[C@H]2C1` (mixture of isomers) [1-(3-azabicyclo[3.3.0]oct-7-yl)-2-methyl-1-butanone], the inhibition at 5 µM was below 50%.

As for `N#Cc1ccoc1C(=O)[C@H]1C[C@H]2CNC[C@H]2C1` [cis-3-cyanofuran-2-yl(3-azabicyclo[3.3.0]oct-7-yl)methanone], the inhibition at 5 µM was below 50%.

`CCOC(=O)C1C[C@H]2CNC[C@H]2C1` (mixture of isomers) [ethyl 3-azabicyclo[3.3.0]octane-7-carboxylate]: the inhibition at 5 µM is below 50%.

For the compound `O=C(c1ccco1)[C@@H]1C[C@H]2CNC[C@H]2C1` [trans-2-furanyl(3-azabicyclo[3.3.0]oct-7-yl)methanone], the inhibition at 5 µM was below 50%.

Consider `O=C(C1C[C@H]2CNC[C@H]2C1)N1CCC[C@@H]1CO` (mixture of isomers) [(R)-(2-(hydroxymethyl)-1-pyrrolidinyl)(3-azabicyclo[3.3.0]oct-7-yl)methanone], for which the inhibition at 5 µM was below 50%.

For `O=C(c1ccc(F)cc1)C1C[C@H]2CNC[C@H]2C1` (mixture of isomers) [4-fluorophenyl(3-azabicyclo[3.3.0]oct-7-yl)methanone], the inhibition at 5 µM is below 50%.

In the case of `O=C(c1ccncc1)C1C[C@H]2CNC[C@H]2C1` (mixture of isomers) [pyridin-4-yl(3-azabicyclo[3.3.0]oct-7-yl)methanone], the inhibition at 5 µM is below 50%.

Turning to `O=C(OCCF)C1C[C@H]2CNC[C@H]2C1` (mixture of isomers) [2-fluoroethyl 3-azabicyclo[3.3.0]octane-7-carboxylate], the inhibition at 5 µM was below 50%.

In the case of `CN(C)C(=O)[C@@H]1C[C@H]2CNC[C@H]2C1` [trans-N,N-dimethyl-3-azabicyclo[3.3.0]octane-7-carboxamide], the inhibition at 5 µM is below 50%.

Consider `CC(C)(C)C(=O)C1C[C@H]2CNC[C@H]2C1` (mixture of isomers) [1-(3-azabicyclo[3.3.0]oct-7-yl)-2,2-dimethyl-1-propanone], for which the inhibition at 5 µM was below 50%.

With `CCCNC(=O)C1CC2CNCC(C2)C1` (stereo not drawn) [N-propyl-3-azabicyclo[3.3.1]nonane-7-carboxamide], the inhibition at 5 µM was below 50%.

For the compound `O=C(OCC1CCOC1)C1C[C@H]2CNC[C@H]2C1` (mixture of isomers) [(tetrahydrofuran-3-yl)methyl 3-azabicyclo[3.3.0]octane-7-carboxylate], the inhibition at 5 µM was below 50%.

For `O=C(NC1CCC1)C1CC2CNCC(C2)C1` (stereo not drawn) [N-(cyclobutyl)-3-azabicyclo[3.3.1]nonane-7-carboxamide], the inhibition at 5 µM was below 50%.

Regarding `C=CCNC(=O)C1CC2CNCC(C2)C1` (stereo not drawn) [N-allyl-3-azabicyclo[3.3.1]nonane-7-carboxamide], the inhibition at 5 µM is below 50%.

Values taken from patent US20100173968A1, “SUB-TYPE SELECTIVE AZABICYCLOALKANE DERIVATIVES” (TARGACEPT, INC., priority 2007, published 2010).
